Laboratory results from patent US20070249607A1, “NK-1 AND SEROTONIN TRANSPORTER INHIBITORS” (Bristol-Myers Squibb Company, priority 2006, published 2007).
Read-outs that look alike come from different tables or passages of the source.

Experiments:
[1] = target: T1, neurokinin-1 (NK-1) receptor (Homo sapiens, UniProt P25103); test: NK-1 Binding assay ([125I] Substance P competition, U373 cell membranes)
T1 construct: a human glioblastoma-astrocytoma cell line that endogenously expresses the neurokinin-1 (NK-1) receptor; endogenous in cells; host or cells: U373 human glioblastoma-astrocytoma cells (membranes)
Description: NK-1 Binding assay. U373 cells, a human glioblastoma-astrocytoma cell line that endogenously expresses the neurokinin-1 (NK-1) receptor, were grown in a monolayer culture at 37° C. in 5% CO2 and fed with Minimum Essential Medium (MEM) supplemented with 10% fetal bovine serum. Membranes were prepared as follows: Cells were washed twice with ice-cold phosphate-buffered saline (pH 7.4) and then incubated for 5-10 minutes with ice-cold 10 mM Tris buffer (pH 7.4) containing 5 mM EDTA. Cells were removed from plates, homogenized, and centrifuged at 32,000×g for 20 minutes. The resulting supernatant was discarded, and the pellet resuspended by homogenization in 50 mM Tris buffer (pH 7.4) containing 1 mM EDTA and centrifuged at 32,000×g for 20 minutes. The resulting supernatant was discarded, and the pellet resuspended by homogenization in NK-1 binding assay buffer (50 mM Tris-HCL (pH 7.4), 3 mM MnCl2, 200 μg/ml BSA, 5 μg/ml chymostatin, 40 μg/ml bacitracin and 4 μg/ml leupeptin).
On the day of an experiment the membrane preparation was thawed, homogenized and diluted with NK-1 binding assay buffer to the appropriate concentration. […] Substance P, at a concentration of […], and concentrations of drugs ranging from 10000 to 0.01 nM. Samples were incubated for 30 min at 20° C. then filtered through GF/B glass fiber filters (pretreated with 1% polyethyleneimine and 0.3% Triton X-100) using a Brandel cell harvester. The filters were then washed with 10 ml ice cold 50 mM Tris-HCL (pH 7.4) containing 3 mM MgCl2. […] The amount of radioligand bound in the presence and absence of competitor was analyzed by plotting (-)log drug concentration versus the amount of radioligand specifically bound. The midpoint of the displacement curve (IC50, nM), signifies the potency.

[2] = target: T2, human serotonin transporters (Homo sapiens, UniProt P31645); test: Serotonin transporter binding assay ([3H]-citalopram competition, HEK-hSERT cell membranes); settings: HEK-hSERT membranes, [3H]-citalopram displacement, read-out: SERT IC50
T2 construct: expressed in transfected cells
Description: Serotonin transporter binding assay. HEK-293 cells that stably express human serotonin transporters (HEK-hSERT cells) were grown at 37° C. in 5% CO2 as a monolayer in medium consisting of EMEM supplemented with 10% fetal bovine serum and G418 sulfate (500 μg/ml). To prepare membranes for radioligand binding experiments, cells were rinsed twice with phosphate-buffered saline (138 mM NaCl, 4.1 mM KCl, 5.1 mM Na2PO4, 1.5 mM KH2PO4, 11.1 mM glucose, pH 7.4). Cells were transferred from plates to polypropylene tubes (16×100 mm), centrifuged at 1,200×g for 5 min and were frozen at −80° C. until assay. Following centrifugation, pellets were resuspended by homogenization in buffer consisting of 50 mM Tris (pH 7.7 at 25° C.), 120 mM NaCl and 5 mM KCl and then centrifuged at 32,000×g for 10 min. Following centrifugation, supernatants were discarded and pellets were resuspended in buffer consisting of 50 mM Tris (pH 7.4 at 25° C.), 150 mM NaCl and 5 mM KCl. Membrane homogenates (200 μl/plate) were incubated with 1 nM [^3H]-citalopram (specific activity=85 Ci/mmol) and increasing concentrations of test compounds for 1 hr at 25° C. in a total volume of 250 μl. The assay buffer consisted of 50 mM Tris (pH 7.4 at 25° C.), 120 mM NaCl and 5 mM KCl (pH 7.4 with conc. HCl). Plates were incubated for 1 hr at 25° C., then filtered through 0.5% PEI treated Whatman GF/B filters using a Brandel cell harvester. Filters were washed three times with 3 ml of ice-cold tris wash buffer. Non-specific binding was defined with 10 μM fluoxetine. Amount of radioligand bound in the presence and absence of competitor was analyzed by plotting (-)log drug concentration versus the amount of radioligand specifically bound. The midpoint of the displacement curve (IC50, nM), signifies the potency. Ki values can be calculated using the method of Cheng and Prusoff (Cheng and Prusoff, BiochemicalPharmacology, Vol 22, pp. 3099-3108, Pergamon Press (1973)).

[3] = Table 1, U373 membranes, [125I] Substance P displacement, read-out: NK-1 IC50

T2 sequence (P31645 whole entry): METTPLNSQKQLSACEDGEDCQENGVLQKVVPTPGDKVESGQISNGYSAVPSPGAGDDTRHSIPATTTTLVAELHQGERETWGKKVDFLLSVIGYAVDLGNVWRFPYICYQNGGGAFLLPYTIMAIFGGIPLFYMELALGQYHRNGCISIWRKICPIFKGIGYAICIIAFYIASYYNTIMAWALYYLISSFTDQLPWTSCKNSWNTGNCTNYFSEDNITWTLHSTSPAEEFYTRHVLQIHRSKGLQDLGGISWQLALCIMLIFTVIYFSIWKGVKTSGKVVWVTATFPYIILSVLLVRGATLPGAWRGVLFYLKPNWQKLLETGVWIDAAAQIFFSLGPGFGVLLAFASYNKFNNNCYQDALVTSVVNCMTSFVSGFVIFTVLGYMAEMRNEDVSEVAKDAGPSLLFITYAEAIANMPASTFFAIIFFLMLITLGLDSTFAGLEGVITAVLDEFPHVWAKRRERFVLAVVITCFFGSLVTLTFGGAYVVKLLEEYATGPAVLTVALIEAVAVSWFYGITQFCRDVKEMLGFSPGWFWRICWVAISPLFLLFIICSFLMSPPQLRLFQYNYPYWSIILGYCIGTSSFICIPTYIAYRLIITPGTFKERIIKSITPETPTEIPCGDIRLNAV
T1 sequence (P25103 whole entry): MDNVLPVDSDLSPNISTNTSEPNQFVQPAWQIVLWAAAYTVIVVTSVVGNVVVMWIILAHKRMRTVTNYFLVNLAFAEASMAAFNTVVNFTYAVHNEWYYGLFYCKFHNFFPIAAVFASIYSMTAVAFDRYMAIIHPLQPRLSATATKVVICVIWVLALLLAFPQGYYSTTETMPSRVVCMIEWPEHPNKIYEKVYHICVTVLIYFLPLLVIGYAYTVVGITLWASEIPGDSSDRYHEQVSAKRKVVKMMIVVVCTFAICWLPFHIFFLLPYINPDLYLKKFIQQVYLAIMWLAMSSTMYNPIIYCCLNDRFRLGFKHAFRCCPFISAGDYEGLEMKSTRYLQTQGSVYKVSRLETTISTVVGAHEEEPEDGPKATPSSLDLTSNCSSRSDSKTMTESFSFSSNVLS

FC(F)(F)c1cc(COCC2(c3ccccc3)CCNCC2)cc(-c2ccncc2Cl)c1
IC50 [1, 3]: 0.01 to 100 nM
IC50 ([2]; Table 1): 0.01 to 100 nM

Cc1cnccc1-c1cc(COCC2(c3ccccc3)CCNCC2)cc(C(F)(F)F)c1
IC50 [1, 3]: 0.01 to 100 nM
IC50 ([2]; Table 1): 0.01 to 100 nM

Cc1cc(-c2cc(COCC3(c4ccccc4)CCNCC3)cc(C(F)(F)F)c2)ccn1
IC50 [1, 3]: 0.01 to 100 nM
IC50 ([2]; Table 1): 0.01 to 100 nM

FC(F)(F)c1cc(COCC2(c3ccccc3)CCNCC2)cc(-c2ccncc2)c1
IC50 [1, 3]: 0.01 to 100 nM
IC50 ([2]; Table 1): 0.01 to 100 nM

CCOc1ccc(-c2cc(COCC3(c4ccccc4)CCNCC3)cc(C(F)(F)F)c2)cc1
IC50 [1, 3]: 0.01 to 100 nM
IC50 ([2]; Table 1): 0.01 to 100 nM

FC(F)(F)c1cccc(-c2cc(COCC3(c4ccccc4)CCNCC3)cc(C(F)(F)F)c2)c1
IC50 [1, 3]: 0.01 to 100 nM
IC50 ([2]; Table 1): 0.01 to 100 nM

COc1ccccc1-c1cc(COCC2(c3ccccc3)CCNCC2)cc(C(F)(F)F)c1
IC50 [1, 3]: 0.01 to 100 nM
IC50 ([2]; Table 1): 0.01 to 100 nM

FC(F)(F)c1cc(COCC2(c3ccccc3)CCNCC2)cc(-c2cccc3c2oc2ccccc23)c1
IC50 [1, 3]: > 300 nM
IC50 ([2]; Table 1): 0.01 to 100 nM

FC(F)(F)c1cc(COCC2(c3ccccc3)CCNCC2)cc(-c2ccccc2Cl)c1
IC50 [1, 3]: 0.01 to 100 nM
IC50 ([2]; Table 1): 0.01 to 100 nM

Fc1cccc(F)c1-c1cc(COCC2(c3ccccc3)CCNCC2)cc(C(F)(F)F)c1
IC50 [1, 3]: 0.01 to 100 nM
IC50 ([2]; Table 1): 0.01 to 100 nM

COc1ccc(-c2cc(COCC3(c4ccccc4)CCNCC3)cc(C(F)(F)F)c2)cc1F
IC50 [1, 3]: 0.01 to 100 nM
IC50 ([2]; Table 1): 0.01 to 100 nM

Fc1ccc(-c2cc(COCC3(c4ccccc4)CCNCC3)cc(C(F)(F)F)c2)cc1F
IC50 [1, 3]: 0.01 to 100 nM
IC50 ([2]; Table 1): 0.01 to 100 nM

CCCCCc1ccc(-c2cc(COCC3(c4ccccc4)CCNCC3)cc(C(F)(F)F)c2)cc1
IC50 [1, 3]: 0.01 to 100 nM
IC50 ([2]; Table 1): 100 to 300 nM

FC(F)(F)c1cc(COCC2(c3ccccc3)CCNCC2)cc(-c2ccccc2Oc2ccccc2)c1
IC50 [1, 3]: > 300 nM
IC50 ([2]; Table 1): 100 to 300 nM

Cc1cccc(C)c1-c1cc(COCC2(c3ccccc3)CCNCC2)cc(C(F)(F)F)c1
IC50 [1, 3]: 100 to 300 nM
IC50 ([2]; Table 1): 100 to 300 nM

FC(F)(F)c1cc(COCC2(c3ccccc3)CCNCC2)cc(-c2ccc3c(c2)OCO3)c1
IC50 [1, 3]: 0.01 to 100 nM
IC50 ([2]; Table 1): 0.01 to 100 nM

CC(C)(C)c1ccc(-c2cc(COCC3(c4ccccc4)CCNCC3)cc(C(F)(F)F)c2)cc1
IC50 [1, 3]: > 300 nM
IC50 ([2]; Table 1): > 300 nM

COc1ccc(-c2cc(COCC3(c4ccccc4)CCNCC3)cc(C(F)(F)F)c2)c(OC)c1
IC50 [1, 3]: 0.01 to 100 nM
IC50 ([2]; Table 1): 0.01 to 100 nM

Oc1cccc(-c2cc(COCC3(c4ccccc4)CCNCC3)cc(C(F)(F)F)c2)c1
IC50 [1, 3]: 0.01 to 100 nM
IC50 ([2]; Table 1): 0.01 to 100 nM

Oc1ccc(-c2cc(COCC3(c4ccccc4)CCNCC3)cc(C(F)(F)F)c2)cc1
IC50 [1, 3]: 0.01 to 100 nM
IC50 ([2]; Table 1): 0.01 to 100 nM

FC(F)(F)c1cc(COCC2(c3ccccc3)CCNCC2)cc(-c2ccc(Cl)c(Cl)c2)c1
IC50 [1, 3]: 0.01 to 100 nM
IC50 ([2]; Table 1): 0.01 to 100 nM

FC(F)(F)Oc1ccc(-c2cc(COCC3(c4ccccc4)CCNCC3)cc(C(F)(F)F)c2)cc1
IC50 [1, 3]: 0.01 to 100 nM
IC50 ([2]; Table 1): 0.01 to 100 nM

CC(=O)c1ccc(-c2cc(COCC3(c4ccccc4)CCNCC3)cc(C(F)(F)F)c2)cc1
IC50 [1, 3]: 100 to 300 nM
IC50 ([2]; Table 1): 0.01 to 100 nM

OCc1ccccc1-c1cc(COCC2(c3ccccc3)CCNCC2)cc(C(F)(F)F)c1
IC50 [1, 3]: 100 to 300 nM
IC50 ([2]; Table 1): 0.01 to 100 nM

Fc1cc(-c2cc(COCC3(c4ccccc4)CCNCC3)cc(C(F)(F)F)c2)ccc1-c1ccccc1
IC50 [1, 3]: > 300 nM
IC50 ([2]; Table 1): 0.01 to 100 nM

COc1c(C)cc(-c2cc(COCC3(c4ccccc4)CCNCC3)cc(C(F)(F)F)c2)cc1C
IC50 [1, 3]: 100 to 300 nM
IC50 ([2]; Table 1): 100 to 300 nM

FC(F)(F)c1cc(COCC2(c3ccccc3)CCNCC2)cc(-c2cccc3cccnc23)c1
IC50 [1, 3]: 100 to 300 nM
IC50 ([2]; Table 1): 0.01 to 100 nM

OCc1cccc(-c2cc(COCC3(c4ccccc4)CCNCC3)cc(C(F)(F)F)c2)c1
IC50 [1, 3]: 100 to 300 nM
IC50 ([2]; Table 1): 0.01 to 100 nM

FC(F)(F)c1cc(COCC2(c3ccccc3)CCNCC2)cc(-c2cccc(-c3ccccc3)c2)c1
IC50 [1, 3]: 100 to 300 nM
IC50 ([2]; Table 1): 100 to 300 nM

Fc1cc(F)cc(-c2cc(COCC3(c4ccccc4)CCNCC3)cc(C(F)(F)F)c2)c1
IC50 [1, 3]: 0.01 to 100 nM
IC50 ([2]; Table 1): 0.01 to 100 nM

CSc1ccccc1-c1cc(COCC2(c3ccccc3)CCNCC2)cc(C(F)(F)F)c1
IC50 [1, 3]: 100 to 300 nM
IC50 ([2]; Table 1): 0.01 to 100 nM

Cc1cc(C)c(-c2cc(COCC3(c4ccccc4)CCNCC3)cc(C(F)(F)F)c2)c(C)c1
IC50 [1, 3]: > 300 nM
IC50 ([2]; Table 1): > 300 nM

COc1ccc(OC)c(-c2cc(COCC3(c4ccccc4)CCNCC3)cc(C(F)(F)F)c2)c1
IC50 [1, 3]: > 300 nM
IC50 ([2]; Table 1): 0.01 to 100 nM

COc1ccc(Cl)cc1-c1cc(COCC2(c3ccccc3)CCNCC2)cc(C(F)(F)F)c1
IC50 [1, 3]: > 300 nM
IC50 ([2]; Table 1): 0.01 to 100 nM

N#Cc1cccc(-c2cc(COCC3(c4ccccc4)CCNCC3)cc(C(F)(F)F)c2)c1
IC50 [1, 3]: 0.01 to 100 nM
IC50 ([2]; Table 1): 0.01 to 100 nM

COc1cccc(OC)c1-c1cc(COCC2(c3ccccc3)CCNCC2)cc(C(F)(F)F)c1
IC50 [1, 3]: 0.01 to 100 nM
IC50 ([2]; Table 1): 0.01 to 100 nM

Fc1ccc(-c2cc(COCC3(c4ccccc4)CCNCC3)cc(C(F)(F)F)c2)c(F)c1
IC50 [1, 3]: 0.01 to 100 nM
IC50 ([2]; Table 1): 0.01 to 100 nM

FC(F)(F)c1cc(COCC2(c3ccccc3)CCNCC2)cc(-c2ccccn2)c1
IC50 [1, 3]: 0.01 to 100 nM
IC50 ([2]; Table 1): 0.01 to 100 nM

FC(F)(F)c1cc(COCC2(c3ccccc3)CCNCC2)cc(-c2ccco2)c1
IC50 [1, 3]: 0.01 to 100 nM
IC50 ([2]; Table 1): 0.01 to 100 nM

FC(F)(F)c1cc(COCC2(c3ccccc3)CCNCC2)cc(-c2nccs2)c1
IC50 [1, 3]: 0.01 to 100 nM
IC50 ([2]; Table 1): 0.01 to 100 nM

FC(F)(F)c1cc(COCC2(c3ccccc3)CCNCC2)cc(-c2ncccn2)c1
IC50 [1, 3]: 100 to 300 nM
IC50 ([2]; Table 1): 0.01 to 100 nM

Cn1nc(C(F)(F)F)cc1-c1cc(COCC2(c3ccccc3)CCNCC2)cc(C(F)(F)F)c1
IC50 [1, 3]: > 300 nM
IC50 ([2]; Table 1): 0.01 to 100 nM

Cn1cncc1-c1cc(COCC2(c3ccccc3)CCNCC2)cc(C(F)(F)F)c1
IC50 [1, 3]: 100 to 300 nM
IC50 ([2]; Table 1): 0.01 to 100 nM

FC(F)(F)c1cc(COCC2(c3ccccc3)CCNCC2)cc(-c2ccccc2)c1
IC50 [1, 3]: 0.01 to 100 nM
IC50 ([2]; Table 1): 0.01 to 100 nM

CC(C)N1CCC(COCc2cc(-c3ccc(C#N)cc3)cc(C(F)(F)F)c2)(c2ccccc2)CC1
IC50 [1]: 0.01 to 100 nM
IC50 ([2]; Table 2): > 300 nM
